In US20040157744A1, “Substituted fluoroalkoxyphenylsulfonyl-amino(thio)carbonyltriazolino(thi)ones” (priority 2001, published 2004):

Legend:
Galium = assay: Pre-emergence test, Galium; assay type: in vivo; details: 30 g ai/ha, after three weeks
Method: (§1) Solvent: 5 parts by weight of acetone
(§2) Emulsifier: 1 part by weight of alkylaryl polyglycol ether
(§3) To produce a suitable preparation of active compound, 1 part by weight of active compound is mixed with the stated amount of solvent, the stated amount of emulsifier is added and the concentrate is diluted with water to the desired concentration.
(§4) Seeds of the test plants are sown in normal soil. After 24 hours, the soil is sprayed with the preparation of active compounds such that the particular amount of active compound desired is applied per unit area. The concentration of active compound in the spray liquor is chosen such that the particular amount of active compound desired is applied in 1000 litres of water per hectare.
(§5) After three weeks, the degree of damage to the plants is rated in % damaged in comparison to the development of the untreated control. The figures denote:
(§6) 0%=no effect (like untreated control)

Lolium [1] = assay: Pre-emergence test, Lolium; assay type: in vivo; details: 30 g ai/ha, after three weeks
Method: as §1, §2, §3, §4, §5, §6

Amaranthus [2] = assay: Pre-emergence test, Amaranthus; assay type: in vivo; details: after three weeks
Method: as §1, §2, §3, §4, §5, §6

Alopecurus [3] = assay: Pre-emergence test, Alopecurus; assay type: in vivo; details: after three weeks
Method: as §1, §2, §3, §4, §5, §6

Viola = assay: Pre-emergence test, Viola; assay type: in vivo; details: after three weeks
Method: as §1, §2, §3, §4, §5, §6

Echinochloa [4] = assay: Pre-emergence test, Echinochloa; assay type: in vivo; details: 30 g ai/ha, after three weeks
Method: as §1, §2, §3, §4, §5, §6

weeds [5] = assay: Pre-emergence test, action against weeds; assay type: in vivo
Method: as §1, §2, §3, §4, §5, §6

Stellaria [6] = assay: Pre-emergence test, Stellaria; assay type: in vivo; details: 30 g ai/ha, after three weeks
Method: as §1, §2, §3, §4, §5, §6

Solanum = assay: Pre-emergence test, Solanum; assay type: in vivo; details: after three weeks
Method: as §1, §2, §3, §4, §5, §6

Matricaria [7] = assay: Pre-emergence test, Matricaria; assay type: in vivo; details: after three weeks
Method: as §1, §2, §3, §4, §5, §6

Xanthium = assay: Post-emergence test, Xanthium; assay type: in vivo; details: 15 g ai/ha, after three weeks, vs untreated control (Table B-1)
Method: as §1, §2, §3
(§7) Test plants of a height of 5-15 cm are sprayed with the preparation of active compound such that the particular amounts of active compound desired are applied per unit area. The concentration of the spray liquor is chosen such that the particular amounts of active compound desired are applied in 10001 of water/ha.
(§8) After three weeks, the degree of damage to the plants is rated in % damage in comparison to the development of the untreated control.
as §6

weeds [8] = assay: Post-emergence test, action against weeds; assay type: in vivo
Method: as §1, §2, §3, §7, §8, §6

Setaria = assay: Post-emergence test, Setaria; assay type: in vivo; details: 15 g ai/ha, after three weeks, vs untreated control (Table B-1)
Method: as §1, §2, §3, §7, §8, §6

Stellaria [9] = assay: Post-emergence test, Stellaria; assay type: in vivo; details: 15 g ai/ha, after three weeks
Method: as §1, §2, §3, §7, §8, §6

Matricaria [10] = assay: Post-emergence test, Matricaria; assay type: in vivo; details: 15 g ai/ha, after three weeks
Method: as §1, §2, §3, §7, §8, §6

Abutilon = assay: Post-emergence test, Abutilon; assay type: in vivo; details: 15 g ai/ha, after three weeks
Method: as §1, §2, §3, §7, §8, §6

Amaranthus [11] = assay: Post-emergence test, Amaranthus; assay type: in vivo; details: 15 g ai/ha, after three weeks
Method: as §1, §2, §3, §7, §8, §6

Wheat = assay: Pre-emergence test, Wheat; assay type: in vivo; details: after three weeks
Method: as §1, §2, §3, §4, §5, §6

Alopecurus [12] = assay: Post-emergence test, Alopecurus; assay type: in vivo; details: 15 g ai/ha, after three weeks, vs untreated control (Table B-2)
Method: as §1, §2, §3, §7, §8, §6

Echinochloa [13] = assay: Post-emergence test, Echinochloa; assay type: in vivo; details: 15 g ai/ha, after three weeks, vs untreated control (Table B-2)
Method: as §1, §2, §3, §7, §8, §6

Lolium [14] = assay: Post-emergence test, Lolium; assay type: in vivo; details: 15 g ai/ha, after three weeks, vs untreated control (Table B-2)
Method: as §1, §2, §3, §7, §8, §6

Barley = assay: Pre-emergence test, Barley; assay type: in vivo; details: 4 g ai/ha, after three weeks, vs untreated control (Table A-2)
Method: as §1, §2, §3, §4, §5, §6

Sugar beet = assay: Pre-emergence test, Sugar beet; assay type: in vivo; details: 30 g ai/ha, after three weeks, vs untreated control (Table A-5)
Method: as §1, §2, §3, §4, §5, §6

[15] = vs untreated control (Table A-4)
[16] = 30 g ai/ha, vs untreated control (Table A-4)
[17] = 8 g ai/ha, vs untreated control (Table A-1)
[18] = vs untreated control (Table B-1)
[19] = vs untreated control (Table A-3)
[20] = 30 g ai/ha, vs untreated control (Table A-3)
[21] = vs untreated control (Table B-2)
[22] = 4 g ai/ha, vs untreated control (Table A-2)
[23] = vs untreated control (Table A-5)
[24] = 30 g ai/ha, vs untreated control (Table A-5)

CCc1cccc(OCCCF)c1S(=O)(=O)NC(=O)n1nc(CC)n(C2CC2)c1=O [Ex. 93]
degree of damage, Galium (Galium; [15]): 95%
melting point: 140 °C
degree of damage, Lolium (Lolium [1]; [15]): 95%
degree of damage, Amaranthus (Amaranthus [2]; [16]): 100%
degree of damage, Alopecurus (Alopecurus [3]; [16]): 95%
degree of damage, Viola (Viola; [16]): 100%
degree of damage, Echinochloa (Echinochloa [4]; [15]): 100%
action against weeds (weeds [5]): very strong action
degree of damage, Stellaria (Stellaria [6]; [15]): 100%

CCCOc1cccc(OCCF)c1S(=O)(=O)NC(=O)n1nc(OCC)n(C)c1=O [Ex. 32]
degree of damage, Solanum (Solanum; [17]): 100%
melting point: 132 °C
degree of damage, Matricaria (Matricaria [7]; [17]): 100%
degree of damage, Xanthium (Xanthium): 100%
action against weeds (weeds [8]): very strong action
degree of damage, Setaria (Setaria): 95%
degree of damage, Amaranthus (Amaranthus [2]; [17]): 100%
degree of damage, Alopecurus (Alopecurus [3]; [17]): 100%
degree of damage, Viola (Viola; [17]): 100%
degree of damage, Stellaria (Stellaria [9]; [18]): 100%
degree of damage, Matricaria (Matricaria [10]; [18]): 100%
degree of damage, Abutilon (Abutilon; [18]): 100%
action against weeds (weeds [5]): very strong action
degree of damage, Amaranthus (Amaranthus [11]; [18]): 100%

COc1nn(C(=O)NS(=O)(=O)c2c(C)cccc2OCCCF)c(=O)n1C [Ex. 41]
degree of damage, Galium (Galium; [19]): 100%
melting point: 120 °C
degree of damage, Wheat (Wheat; [20]): 0%
degree of damage, Matricaria (Matricaria [7]; [20]): 100%
degree of damage, Lolium (Lolium [1]; [19]): 90%
degree of damage, Amaranthus (Amaranthus [2]; [20]): 95%
degree of damage, Echinochloa (Echinochloa [4]; [19]): 95%
action against weeds (weeds [5]): very strong action
degree of damage, Stellaria (Stellaria [6]; [19]): 100%

CCc1ccccc1S(=O)(=O)N(OCCF)C(=O)n1nc(C)n(C2CC2)c1=O [Ex. 1, 4-cyclopropyl-5-methyl-2-[(2-fluoro-ethoxy)-6-ethyl-phenylsulphonylaminocarbonyl]-2,4-dihydro-3H-1,2,4-triazol-3-one]
melting point: 147 °C

CCOc1cccc(OCCF)c1S(=O)(=O)NC(=O)n1nc(OCC)n(C)c1=O [Ex. 33]
melting point: 157 °C
degree of damage, Alopecurus (Alopecurus [12]): 95%
degree of damage, Echinochloa (Echinochloa [13]): 100%
degree of damage, Lolium (Lolium [14]): 95%
action against weeds (weeds [8]): very strong action
degree of damage, Stellaria (Stellaria [9]; [21]): 100%
degree of damage, Matricaria (Matricaria [10]; [21]): 100%
degree of damage, Abutilon (Abutilon; [21]): 100%
degree of damage, Amaranthus (Amaranthus [11]; [21]): 100%

CCCOc1nn(C(=O)NS(=O)(=O)c2c(OCC)cccc2OCCF)c(=O)n1C [Ex. 34]
degree of damage, Solanum (Solanum; [22]): 95%
melting point: 123 °C
degree of damage, Wheat (Wheat; [22]): 0%
degree of damage, Matricaria (Matricaria [7]; [22]): 100%
degree of damage, Barley (Barley): 10%
degree of damage, Amaranthus (Amaranthus [2]; [22]): 95%
degree of damage, Alopecurus (Alopecurus [3]; [22]): 100%
degree of damage, Viola (Viola; [22]): 95%
action against weeds (weeds [5]): very strong action

CCCc1cccc(OCCCF)c1S(=O)(=O)NC(=O)n1nc(N(C)C)n(C2CC2)c1=O [Ex. 114]
degree of damage, Galium (Galium; [23]): 80%
melting point: 130 °C
degree of damage, Sugar beet (Sugar beet): 0%
degree of damage, Lolium (Lolium [1]; [23]): 95%
degree of damage, Amaranthus (Amaranthus [2]; [24]): 95%
degree of damage, Alopecurus (Alopecurus [3]; [24]): 95%
action against weeds (weeds [5]): very strong action
degree of damage, Stellaria (Stellaria [6]; [23]): 95%
